The results in this text go back to ChEMBL document CHEMBL1201862, “PubChem BioAssay data set” (2004).

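Assay format: 96-well plates, 48-hour exposure. Here, GI50 denotes the concentration required for 50% inhibition of growth.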 Calls of active or inactive are those of the source. Cut-off read from the data, not from the text of the source: active = GI50 up to about 1.1 µM and inactive = higher.

Test systems include SF-295; SNB-19; SW-620; LOX IMVI; OVCAR-5; KM12; SK-MEL-2; SNB-75; OVCAR-4; SF-539; CCRF-CEM; 786-0; HCC 2998; ACHN; RXF 393; HOP-92; UACC-257.
Common to all, as to assay: NCI tumour cell line growth inhibition, 48 h

Turning to `COc1nc2c(c(O)c(C)c(=O)n2OC2OC(COC(C)=O)C(OC(C)=O)C(OC(C)=O)C2OC(C)=O)c(=O)n1C` (stereo not given), the GI50 with SF-295, in the assay on SNB-19, in the assay with SW-620, with LOX IMVI, with OVCAR-5 and in the assay with KM12 was > 100 µM (inactive) in each case. The GI50 in the assay on SK-MEL-2, in the assay with SNB-75, in the assay on OVCAR-4, in the assay with SF-539, in the assay with CCRF-CEM and in the assay with 786-0 was > 100 µM (inactive) each time. Moreover, the GI50 with HCC 2998, in the assay with ACHN and in the assay with RXF 393 was > 100 µM (inactive) throughout.
For `COc1cc2oc(-c3ccccc3)cc(=O)c2c(O)c1C`, the GI50 is > 100 µM (inactive) with SF-295; 27.4 µM (inactive) with HOP-92; > 100 µM (inactive) in the assay with SW-620; > 100 µM (inactive) in the assay on LOX IMVI; > 100 µM (inactive) in the assay on OVCAR-5; > 100 µM (inactive) in the assay with KM12. Also, the GI50 with SK-MEL-2, in the assay on SNB-75, in the assay on OVCAR-4, in the assay on SF-539, with CCRF-CEM and with 786-0 was > 100 µM (inactive) in each case. In addition, the GI50 in the assay on HCC 2998, in the assay on ACHN and in the assay on UACC-257 was > 100 µM (inactive) in each case.
In the case of `O=C(c1ccccc1)c1c(CNCc2ccccc2)n(C(=O)c2ccccc2)c2ccccc12`, the GI50 is 9.51 µM (inactive) in the assay on SF-295; 13.7 µM (inactive) with HOP-92; 22.8 µM (inactive) in the assay with SNB-19; 71.6 µM (inactive) in the assay with SW-620; > 100 µM (inactive) in the assay on OVCAR-5; 18.9 µM (inactive) in the assay with KM12. The GI50 with SK-MEL-2 is 63.4 µM (inactive); in the assay on SNB-75 it was 2.84 µM (inactive); in the assay on OVCAR-4, 9.95 µM (inactive); in the assay on SF-539 it was 69.3 µM (inactive); in the assay with CCRF-CEM, 23.2 µM (inactive); with 786-0, > 100 µM (inactive). Also, the GI50 is 86.9 µM (inactive) in the assay with HCC 2998, 14.5 µM (inactive) with ACHN and 29.6 µM (inactive) in the assay on UACC-257.
`Cc1cc2c(C)nn(Cc3ccccc3Cl)c2c(C#N)c1C`: the GI50 in the assay with SF-295, in the assay with HOP-92, in the assay with SNB-19, in the assay on SW-620, in the assay with LOX IMVI and in the assay on OVCAR-5 was > 100 µM (inactive) in each case. For the same compound, the GI50 with SK-MEL-2, in the assay on SNB-75, in the assay with SF-539, with CCRF-CEM, in the assay on 786-0 and in the assay on HCC 2998 was > 100 µM (inactive) each time. Moreover, the GI50 in the assay on ACHN, in the assay with RXF 393 and with UACC-257 was > 100 µM (inactive) in each case.
For the compound `COc1ccc(N2C(=O)C3CC(c4ccc(C)cc4)c4c([nH]c5ccccc45)C3C2=O)cc1` (stereo not given), the GI50 with SF-295 is > 48.8 µM (inactive); with HOP-92 it was 24 µM (inactive); in the assay with SNB-19, 12.4 µM (inactive); in the assay on SW-620, 6.22 µM (inactive); with LOX IMVI, 6.92 µM (inactive); with OVCAR-5, > 72.3 µM (inactive). Besides, the GI50 in the assay on KM12 is > 41.1 µM (inactive); with SK-MEL-2, > 75.2 µM (inactive); in the assay on SNB-75, 18.4 µM (inactive); with OVCAR-4, 13.9 µM (inactive); in the assay on SF-539, 23.7 µM (inactive); with CCRF-CEM, 11 µM (inactive). In addition, the GI50 is 12.2 µM (inactive) in the assay with 786-0, 52.7 µM (inactive) with HCC 2998, 21.6 µM (inactive) with ACHN and > 100 µM (inactive) with UACC-257.
As for `O=C(O)/C(Cl)=C(Cl)/C=N/NC(=O)c1cc2ccccc2cc1O`, the GI50 with SF-295 is 11.9 µM (inactive); in the assay with HOP-92, 30.3 µM (inactive); in the assay with SNB-19, 35.2 µM (inactive); in the assay with SW-620, 17.3 µM (inactive); with OVCAR-5, 19.3 µM (inactive); with KM12, 36.8 µM (inactive). In addition, the GI50 in the assay on SK-MEL-2 was 16 µM (inactive); in the assay on SNB-75, 3.38 µM (inactive); in the assay with OVCAR-4, 5.66 µM (inactive); in the assay on SF-539, 29.6 µM (inactive); with CCRF-CEM it was 4.86 µM (inactive); in the assay on 786-0, 19.1 µM (inactive). The GI50 with ACHN was 18 µM (inactive); in the assay on UACC-257, 15.5 µM (inactive).
Take `Cc1ccc(/C=C2\CCCC(C(NO)c3ccc(C)cc3)C2=NO)cc1` (stereo not given): the GI50 in the assay with SNB-19 was 83.6 µM (inactive); with SW-620, 42.6 µM (inactive); in the assay with KM12 it was 21.2 µM (inactive); in the assay on SK-MEL-2, 69.2 µM (inactive); in the assay on SNB-75 it was 28 µM (inactive); in the assay with OVCAR-4, 20 µM (inactive). Further, the GI50 in the assay with SF-539 is 39.6 µM (inactive); in the assay on CCRF-CEM, 21 µM (inactive); in the assay on 786-0, 58.3 µM (inactive); with HCC 2998, 16.8 µM (inactive); in the assay on ACHN, > 100 µM (inactive); with RXF 393, 20.6 µM (inactive). Also, in the assay on UACC-257, the GI50 was 29.6 µM (inactive).
Turning to `NC(=O)N/N=C(/c1nc2ccc([N+](=O)[O-])cc2nc1O)C(O)c1ccco1` (stereo not given), the GI50 in the assay with SF-295 was 80.7 µM (inactive); in the assay with HOP-92, > 100 µM (inactive); in the assay on SNB-19, > 100 µM (inactive); in the assay with SW-620, 44.6 µM (inactive); in the assay on LOX IMVI, 21.6 µM (inactive); in the assay on OVCAR-5 it was > 100 µM (inactive). Further, the GI50 is 97.9 µM (inactive) in the assay with SNB-75; > 100 µM (inactive) in the assay with OVCAR-4; 15.8 µM (inactive) in the assay on SF-539; 34.7 µM (inactive) with CCRF-CEM; 97.5 µM (inactive) in the assay with 786-0; 31 µM (inactive) in the assay with HCC 2998. Moreover, the GI50 in the assay with ACHN is 28.4 µM (inactive); in the assay on RXF 393, > 100 µM (inactive); in the assay with UACC-257 it was > 100 µM (inactive).
As for `NCC(NC(=O)OCc1ccccc1)C(=O)O` (stereo not given), the GI50 in the assay with SF-295, with HOP-92, in the assay with SNB-19, in the assay on SW-620, in the assay on LOX IMVI and with OVCAR-5 was > 50 µM (inactive) each time. Besides, the GI50 with KM12, with SK-MEL-2, in the assay on SNB-75, in the assay with OVCAR-4, with SF-539 and in the assay on CCRF-CEM was > 50 µM (inactive) in each case. Also, the GI50 with 786-0, with HCC 2998, with ACHN and in the assay on UACC-257 was > 50 µM (inactive) throughout.
Take `CN1NC2(CCCCC2)ON=C1c1ccccc1`: the GI50 in the assay on SF-295, in the assay with HOP-92, with SNB-19, with SW-620, in the assay on LOX IMVI and with OVCAR-5 was > 100 µM (inactive) in each case. In addition, the GI50 in the assay on KM12, in the assay with SNB-75, in the assay on OVCAR-4, in the assay with SF-539, in the assay on CCRF-CEM and in the assay with 786-0 was > 100 µM (inactive) in each case. For the same compound, the GI50 in the assay on ACHN, in the assay on RXF 393 and in the assay on UACC-257 was > 100 µM (inactive) in each case.
In the case of `C=CCNC(=S)NNC(=O)c1c(C)nc2sccn12`, the GI50 is > 100 µM (inactive) in the assay on SF-295; 70 µM (inactive) with HOP-92; > 100 µM (inactive) with SNB-19; > 100 µM (inactive) in the assay with SW-620; > 100 µM (inactive) in the assay on LOX IMVI; > 100 µM (inactive) in the assay with OVCAR-5. Besides, the GI50 in the assay with KM12, in the assay with SK-MEL-2, with SF-539, with CCRF-CEM, in the assay on 786-0 and with HCC 2998 was > 100 µM (inactive) in each case. The GI50 in the assay with ACHN, in the assay with RXF 393 and in the assay on UACC-257 was > 100 µM (inactive) each time.
With `CC(=O)OC1CC2(C)OC(Cc3ccccc32)O1` (stereo not given), the GI50 in the assay with SF-295 is > 100 µM (inactive); in the assay with HOP-92, 53.6 µM (inactive); with SNB-19, > 100 µM (inactive); in the assay on SW-620, > 100 µM (inactive); in the assay with LOX IMVI, > 100 µM (inactive); in the assay on KM12 it was > 100 µM (inactive). For the same compound, the GI50 in the assay on SK-MEL-2 was > 100 µM (inactive); with SNB-75, 65.9 µM (inactive); in the assay with SF-539, > 100 µM (inactive); in the assay on CCRF-CEM, > 100 µM (inactive); in the assay on 786-0, > 100 µM (inactive); in the assay with HCC 2998 it was > 100 µM (inactive). Moreover, the GI50 in the assay on ACHN, in the assay on RXF 393 and in the assay with UACC-257 was > 100 µM (inactive) each time.
For the compound `COc1cc2c(c(OC)c1OC)-c1ccc(SC)c(=O)cc1[C@@H](NCc1ccc([N+](=O)[O-])cc1)CC2`, the GI50 in the assay on SF-295 is 0.00364 µM (active); in the assay on HOP-92, 0.0472 µM (active); in the assay with SNB-19, 0.0308 µM (active); with SW-620, 0.00342 µM (active); with LOX IMVI, 0.00506 µM (active); in the assay on OVCAR-5 it was 0.0074 µM (active). For the same compound, the GI50 was 0.0034 µM (active) with KM12; 0.0113 µM (active) with SK-MEL-2; 0.00354 µM (active) with SNB-75; 0.00271 µM (active) in the assay on SF-539; 0.00277 µM (active) with CCRF-CEM; 0.00624 µM (active) in the assay with 786-0. Moreover, the GI50 in the assay with HCC 2998 is 0.00299 µM (active); in the assay with ACHN it was 0.00959 µM (active); in the assay on RXF 393, 0.00241 µM (active); with UACC-257 it was 0.00516 µM (active).
